# Results from ChEMBL document CHEMBL3217491, “Design, synthesis and biological evaluation of imidazopyridine/pyrimidine-chalcone derivatives as potential anticancer agents” (2010).
# Key:
# Type in all cases: functional
# 786-0 = test: Growth inhibition of human 786-0 cells after 48 hrs by SRB assay; details: 786-0, 48 h
# SNB-19 = test: Growth inhibition of human SNB19 cells after 48 hrs by SRB assay; details: SNB-19, 48 h
# Malme-3M = test: Growth inhibition of human MALME-3M cells after 48 hrs by SRB assay
# HOP-62 = test: Growth inhibition of human HOP62 cells after 48 hrs by SRB assay; details: HOP-62, 48 h
# TK-10 = test: Growth inhibition of human TK10 cells after 48 hrs by SRB assay; details: TK-10, 48 h
# DU-145 = test: Growth inhibition of human DU145 cells after 48 hrs by SRB assay; details: DU-145, 48 h
# [1] = Growth inhibition of human HCT15 cells after 48 hrs by SRB assay; details: HCT-15, 48 h
# [2] = Growth inhibition of human UO31 cells after 48 hrs by SRB assay; details: UO-31, 48 h
# CAKI-1 = test: Growth inhibition of human Caki1 cells after 48 hrs by SRB assay; details: CAKI-1, 48 h
# MDA-MB-231 = test: Growth inhibition of human MDA-MB-231 cells after 48 hrs by SRB assay; details: MDA-MB-231, 48 h
# HT-29 = test: Growth inhibition of human HT-29 cells after 48 hrs by SRB assay; details: HT-29, 48 h
# [3] = Growth inhibition of human MOLT4 cells after 48 hrs by SRB assay; details: MOLT-4, 48 h
# NCI-H522 = test: Growth inhibition of human NCI-H522 cells after 48 hrs by SRB assay; details: NCI-H522, 48 h
# MDA-MB-435 = test: Growth inhibition of human MDA-MB-435 cells after 48 hrs by SRB assay; details: MDA-MB-435, 48 h
# [4] = Growth inhibition of human OVCAR4 cells after 48 hrs by SRB assay; details: OVCAR-4, 48 h
# RPMI-8226 = test: Growth inhibition of human RPMI8226 cells after 48 hrs by SRB assay; details: RPMI-8226, 48 h
# U-251 = test: Growth inhibition of human U251 cells after 48 hrs by SRB assay; details: U-251, 48 h
# [5] = Growth inhibition of human LOXIMVI cells after 48 hrs by SRB assay; details: LOX IMVI
# [6] = Growth inhibition of human NCI-ADR-RES cells after 48 hrs by SRB assay
# [7] = Growth inhibition of human OVCAR8 cells after 48 hrs by SRB assay; details: OVCAR-8, 48 h
# [8] = Growth inhibition of human EKVX cells after 48 hrs by SRB assay
# A549 = test: Growth inhibition of human A549 cells after 48 hrs by SRB assay; details: A549, 48 h
# COLO 205 = test: Growth inhibition of human COLO205 cells after 48 hrs by SRB assay; details: COLO 205, 48 h
# SR = test: Growth inhibition of human SR cells after 48 hrs by SRB assay
# PC-3 = test: Growth inhibition of human PC3 cells after 48 hrs by SRB assay; details: PC-3, 48 h
# [9] = Growth inhibition of human OVCAR3 cells after 48 hrs by SRB assay; details: OVCAR-3, 48 h
# T47D = test: Growth inhibition of human T47D cells after 48 hrs by SRB assay
# [10] = Growth inhibition of human SF539 cells after 48 hrs by SRB assay; details: SF-539, 48 h
# IGROV-1 = test: Growth inhibition of human IGROV1 cells after 48 hrs by SRB assay; details: IGROV-1, 48 h
# A498 = test: Growth inhibition of human A498 cells after 48 hrs by SRB assay; details: A498, 48 h
# [11] = Growth inhibition of human BT549 cells after 48 hrs by SRB assay; details: BT-549, 48 h
# HCT-116 = test: Growth inhibition of human HCT116 cells after 48 hrs by SRB assay; details: HCT-116, 48 h
# CCRF-CEM = test: Growth inhibition of human CCRF-CEM cells after 48 hrs by SRB assay
# SF-268 = test: Growth inhibition of human SF268 cells after 48 hrs by SRB assay; details: SF-268, 48 h
# [12] = Growth inhibition of human UACC257 cells after 48 hrs by SRB assay; details: UACC-257, 48 h
# SK-OV-3 = test: Growth inhibition of human SKOV3 cells after 48 hrs by SRB assay; details: SK-OV-3, 48 h
# NCI-H460 = test: Growth inhibition of human NCI-H460 cells after 48 hrs by SRB assay; details: NCI-H460, 48 h
# MDA-MB-468 = test: Growth inhibition of human MDA-MB-468 cells after 48 hrs by SRB assay; details: MDA-MB-468, 48 h
# SK-MEL-28 = test: Growth inhibition of human SK-MEL-28 cells after 48 hrs by SRB assay; details: SK-MEL-28, 48 h
# K562 = test: Growth inhibition of human K562 cells after 48 hrs by SRB assay; details: K562, 48 h
# M14 = test: Growth inhibition of human M14 cells after 48 hrs by SRB assay; details: M14, 48 h
# SK-MEL-5 = test: Growth inhibition of human SK-MEL-5 cells after 48 hrs by SRB assay; details: SK-MEL-5, 48 h
# NCI-H23 = test: Growth inhibition of human NCI-H23 cells after 48 hrs by SRB assay; details: NCI-H23, 48 h
# MCF7 = test: Growth inhibition of human MCF7 cells after 48 hrs by SRB assay; details: MCF7, 48 h
# KM12 = test: Growth inhibition of human KM12 cells after 48 hrs by SRB assay; details: KM12, 48 h
# NCI-H322M = test: Growth inhibition of human NCI-H322M cells after 48 hrs by SRB assay
# NCI-H226 = test: Growth inhibition of human NCI-H226 cells after 48 hrs by SRB assay; details: NCI-H226, 48 h
# SNB-75 = test: Growth inhibition of human SNB75 cells after 48 hrs by SRB assay; details: SNB-75, 48 h
# [13] = Growth inhibition of human HCC2998 cells after 48 hrs by SRB assay; details: HCC 2998, 48 h
# SN12C = test: Growth inhibition of human SN12C cells after 48 hrs by SRB assay
# [14] = Growth inhibition of human Hs578T cells after 48 hrs by SRB assay; details: Hs-578T
# [15] = Growth inhibition of human OVCAR5 cells after 48 hrs by SRB assay; details: OVCAR-5, 48 h
# [16] = Growth inhibition of human UACC62 cells after 48 hrs by SRB assay; details: UACC-62, 48 h
# SK-MEL-2 = test: Growth inhibition of human SK-MEL-2 cells after 48 hrs by SRB assay; details: SK-MEL-2, 48 h
# HL-60(TB) = test: Growth inhibition of human HL-60(TB) cells after 48 hrs by SRB assay; details: HL-60, 48 h
# [17] = Growth inhibition of human SF295 cells after 48 hrs by SRB assay; details: SF-295, 48 h
# SW-620 = test: Growth inhibition of human SW620 cells after 48 hrs by SRB assay; details: SW-620, 48 h
# ACHN = test: Growth inhibition of human ACHN cells after 48 hrs by SRB assay
structure (smiles),measurement,setting,value
COc1ccc(-c2nc3ccccn3c2/C=C/C(=O)c2cc(OC)c(OC)c(OC)c2)cc1OC,GI50,786-0,3740 nM
same,GI50,SNB-19,4910 nM
same,GI50,Malme-3M,2360 nM
same,GI50,HOP-62,4420 nM
same,GI50,TK-10,3280 nM
same,GI50,DU-145,2630 nM
same,GI50,[1],3730 nM
same,GI50,[2],550 nM
same,GI50,CAKI-1,1390 nM
same,GI50,MDA-MB-231,3280 nM
same,GI50,HT-29,3200 nM
same,GI50,[3],2180 nM
same,GI50,NCI-H522,2740 nM
same,GI50,MDA-MB-435,1780 nM
same,GI50,[4],2430 nM
same,GI50,RPMI-8226,390 nM
same,GI50,U-251,2910 nM
same,GI50,[5],2260 nM
same,GI50,[6],2180 nM
same,GI50,[7],2830 nM
same,GI50,[8],1710 nM
same,GI50,A549,3860 nM
same,GI50,COLO 205,3920 nM
same,GI50,SR,1900 nM
same,GI50,PC-3,3710 nM
same,GI50,[9],2470 nM
same,GI50,T47D,3010 nM
same,GI50,[10],2710 nM
same,GI50,IGROV-1,3030 nM
same,GI50,A498,2930 nM
same,GI50,[11],890 nM
same,GI50,HCT-116,2620 nM
same,GI50,CCRF-CEM,1540 nM
same,GI50,SF-268,3580 nM
same,GI50,[12],3240 nM
same,GI50,SK-OV-3,4920 nM
same,GI50,NCI-H460,2990 nM
same,GI50,MDA-MB-468,2280 nM
same,GI50,SK-MEL-28,3300 nM
same,GI50,K562,2990 nM
same,GI50,M14,4480 nM
same,GI50,SK-MEL-5,1500 nM
same,GI50,NCI-H23,3780 nM
same,GI50,MCF7,2760 nM
same,GI50,KM12,2520 nM
same,GI50,NCI-H322M,2080 nM
same,GI50,NCI-H226,6100 nM
same,GI50,SNB-75,3920 nM
same,GI50,[13],3800 nM
same,GI50,SN12C,4100 nM
same,GI50,[14],1850 nM
same,GI50,[15],7380 nM
same,GI50,[16],4860 nM
same,GI50,SK-MEL-2,2370 nM
same,GI50,HL-60(TB),2530 nM
same,GI50,[17],1850 nM
same,GI50,SW-620,2780 nM
same,GI50,ACHN,3220 nM
